According to patent publication US20240400553A1, “AMINE BASED MATRIPTASE 2 INHIBITORS AND USES THEREOF” (Disc Medicine, Inc., priority 2023, published 2024):

biological target: T1, Human Recombinant Matriptase 2 (Homo sapiens, UniProt Q8IU80); assay: Matriptase 2 inhibition, fluorescence based assay (Method I); format: biochemical; conditions: Table A; Ki of Matriptase-2; read-out: Mat-2 Ki
T1 construct: made in house
T1 sequence (Q8IU80 1-811): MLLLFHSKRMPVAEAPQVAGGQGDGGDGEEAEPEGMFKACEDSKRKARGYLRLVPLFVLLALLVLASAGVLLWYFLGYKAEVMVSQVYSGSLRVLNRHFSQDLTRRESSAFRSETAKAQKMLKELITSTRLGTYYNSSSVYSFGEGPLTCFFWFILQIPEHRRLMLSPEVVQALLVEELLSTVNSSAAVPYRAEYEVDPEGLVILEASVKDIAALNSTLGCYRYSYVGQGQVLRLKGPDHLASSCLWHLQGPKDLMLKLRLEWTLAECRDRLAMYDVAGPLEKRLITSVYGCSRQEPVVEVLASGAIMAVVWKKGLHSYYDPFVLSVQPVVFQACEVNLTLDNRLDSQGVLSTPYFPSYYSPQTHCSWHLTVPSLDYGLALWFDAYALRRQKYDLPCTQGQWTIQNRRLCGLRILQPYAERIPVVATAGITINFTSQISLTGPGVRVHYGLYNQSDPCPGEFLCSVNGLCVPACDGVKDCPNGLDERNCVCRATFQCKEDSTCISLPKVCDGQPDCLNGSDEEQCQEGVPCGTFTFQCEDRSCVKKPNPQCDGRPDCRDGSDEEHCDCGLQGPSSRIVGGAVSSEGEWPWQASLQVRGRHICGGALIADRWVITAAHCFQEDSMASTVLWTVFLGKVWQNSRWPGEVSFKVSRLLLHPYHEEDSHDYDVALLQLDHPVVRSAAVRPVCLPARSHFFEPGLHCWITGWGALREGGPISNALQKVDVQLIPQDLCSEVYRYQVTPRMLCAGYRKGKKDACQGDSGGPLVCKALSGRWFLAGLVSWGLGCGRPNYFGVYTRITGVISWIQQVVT
How it was run: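 Fluorogenic readout (Ex 360/Em 480 nm) taken 60 min after adding 62 μM Boc-Gln-Ala-Arg-AMC, following 30-min enzyme–compound preincubation at 25 °C. Conditions: 3.5 nM in-house enzyme, pH 7.5 Tris/NaCl/gelatin buffer, 1% DMSO; percent inhibition versus concentration fitted by variable-slope sigmoidal regression.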

SMILES | Ki [nM]
CN1CCC(CN(C)C(=O)c2cc3ccc(CN)nc3n2Cc2cc(NS(=O)(=O)Cc3ccccc3)cc3ccccc23)CC1 [Compound 26, 6-(aminomethyl)-N-methyl-N-[(1-methyl-piperidin-4-yl)methyl]-1-{[3-(phenylmethane-sulfonamido)naphthalen-1-yl]methyl}-1H-pyr-rolo[2,3-b]pyridine-2-carboxamide] | ≤ 100
C[C@@H](COC(=O)c1cc2ccc(CN)nc2n1Cc1cc(NS(=O)(=O)Cc2ccccc2)cc2ccccc12)N(C)C [Compound 27, (2S)-2-(dimethylamino)-propyl 6-(aminomethyl)-1-{[3-(phenylmethane-sulfonamido)naphthalen-1-yl]methyl}-1H-pyr-rolo[2,3-b]pyridine-2-carboxylate] | ≤ 100
CC(C)(C)n1cncc1COC(=O)c1cc2ccc(CN)nc2n1Cc1cc(NS(=O)(=O)Cc2ccccc2)cc2ccccc12 [Compound 29, (1-tert-butyl-1H-imid-azol-5-yl)methyl 6-(aminomethyl)-1-{[3-(phenylmethanesulfon-amido)naphthalen-1-yl]-methyl}-1H-pyrrolo[2,3-b]pyridine-2-carboxylate] | ≤ 100
CCC1(COC(=O)c2cc3ccc(CN)nc3n2Cc2cc(NS(=O)(=O)Cc3ccccc3)cc3ccccc23)CCN(C)CC1 [Compound 31, (4-ethyl-1-methylpiper-idin-4-yl)methyl 6-(aminomethyl)-1-{[3-(phenylmethanesulfon-amido)naphthalen-1-yl]-methyl}-1H-pyrrolo[2,3-b]pyridine-2-carboxylate] | ≤ 100
NCc1ccc2cc(C(=O)OCCN3CCNCC3)n(Cc3cc(NS(=O)(=O)Cc4ccccc4)cc4ccccc34)c2n1 [Compound 33, 2-(piperazin-1-yl)ethyl 6-(aminomethyl)-1-{[3-(phenylmethanesulfon-amido)naphthalen-1-yl]-methyl}-1H-pyrrolo[2,3-b]pyridine-2-carboxylate] | ≤ 100
CN(C)CCCCCOC(=O)c1cc2ccc(CN)nc2n1Cc1cc(NS(=O)(=O)Cc2ccccc2)cc2ccccc12 [Compound 34, 5-(dimethylamino)pentyl 6-(aminomethyl)-1-{[3-(phenylmethanesulfon-amido)naphthalen-1-yl]-methyl}-1H-pyrrolo[2,3-b]pyridine-2-carboxylate] | ≤ 100
CNCCCOC(=O)c1cc2ccc(CN)nc2n1Cc1cc(NS(=O)(=O)Cc2ccccc2)cc2ccccc12 [Compound 35, 3-(methylamino)propyl 6-(aminomethyl)-1-{[3-(phenylmethanesulfon-amido)naphthalen-1-yl]-methyl}-1H-pyrrolo[2,3-b]pyridine-2-carboxylate] | ≤ 100
NCc1ccc2cc(C(=O)OC[C@H]3CNCCO3)n(Cc3cc(NS(=O)(=O)Cc4ccccc4)cc4ccccc34)c2n1 [Compound 36] | ≤ 100
CN(C)C(=O)CCCNC(=O)c1cc2ccc(CN)nc2n1Cc1cc(NS(=O)(=O)Cc2ccccc2)cc2ccccc12 [Compound 38, 4-{[6-(aminomethyl)-1-{[3-(phenylmethane-sulfonamido)naphthalen-1-yl]methyl}-1H-pyr-rolo[2,3-b]pyridin-2-yl]-formamido}-N,N-dimethylbutanamide] | ≤ 100
CN1CCC(CCOC(=O)c2cc3ccc(CN)nc3n2Cc2cc(NS(=O)(=O)Cc3ccccc3)cc3ccccc23)CC1 [Compound 39, 2-(1-methylpiperidin-4-yl)ethyl 6-(aminometh-yl)-1-{[3-(phenylmeth-anesulfonamido)naph-thalen-1-yl]methyl}-1H-pyrrolo[2,3-b]pyridine-2-carboxylate] | ≤ 100
CC(C)(CN)COC(=O)c1cc2ccc(CN)nc2n1Cc1cc(NS(=O)(=O)Cc2ccccc2)cc2ccccc12 [Compound 40, 3-amino-2,2-dimethyl-propyl 6-(aminomethyl)-1-{[3-(phenylmethane-sulfonamido)naphthalen-1-yl]methyl}-1H-pyrrolo-[2,3-b]pyridine-2-car-boxylate] | ≤ 100
CN1CCC(COC(=O)c2cc3ccc(CN)nc3n2Cc2cc(NS(=O)(=O)C(F)(F)c3ccccc3)cc3ccccc23)CC1 [Compound 42, (1-methylpiperidin-4-yl)methyl 6-(aminometh-yl)-1-({3-[difluoro(phen-yl)methanesulfonamido]-naphthalen-1-yl}meth-yl)-1H-pyrrolo[2,3-b]-pyridine-2-carboxylate] | ≤ 100
CC(C)CN1CCC(COC(=O)c2cc3ccc(CN)nc3n2Cc2cc(NS(=O)(=O)Cc3ccccc3)cc3ccccc23)CC1 [Compound 43, [1-(2-methylpropyl)-piperidin-4-yl]methyl 6-(aminomethyl)-1-{[3-(phenylmethanesulfon-amido)naphthalen-1-yl]-methyl}-1H-pyrrolo[2,3-b]pyridine-2-carboxylate] | ≤ 100
CN1CCC(CCNC(=O)c2cc3ccc(CN)nc3n2Cc2cc(NS(=O)(=O)Cc3ccccc3)cc3ccccc23)CC1 [Compound 44, 6-(aminomethyl)-N-[2-(1-methylpiperidin-4-yl)ethyl]-1-{[3-(phenyl-methanesulfonamido)-naphthalen-1-yl]methyl}-1H-pyrrolo[2,3-b]pyr-idine-2-carboxamide] | ≤ 100
CC(C)(C)n1ccnc1COC(=O)c1cc2ccc(CN)nc2n1Cc1cc(NS(=O)(=O)Cc2ccccc2)cc2ccccc12 [Compound 46, (1-tert-butyl-1H-imid-azol-2-yl)methyl 6-(aminomethyl)-1-{[3-(phenylmethanesulfon-amido)naphthalen-1-yl]-methyl}-1H-pyrrolo[2,3-b]pyridine-2-carboxylate] | ≤ 100
CN(C)CCCOC(=O)c1cc2ccc(CN)nc2n1Cc1cc(NS(=O)(=O)Cc2ccccc2)cc2ccccc12 [Compound 47, 3-(dimethylamino)prop-yl 6-(aminomethyl)-1-{[3-(phenylmethane-sulfonamido)naphthalen-1-yl]methyl}-1H-pyr-rolo[2,3-b]pyridine-2-carboxylate] | ≤ 100
CN(C)CCOC(=O)c1cc2ccc(CN)nc2n1Cc1cc(NS(=O)(=O)Cc2ccccc2)cc2ccccc12 [Compound 49, 2-(dimethylamino)ethyl 6-(aminomethyl)-1-{[3-(phenylmethanesulfon-amido)naphthalen-1-yl]-methyl}-1H-pyrrolo[2,3-b]pyridine-2-carboxylate] | ≤ 100
NCc1ccc2cc(C(=O)OCCN3CCOCC3)n(Cc3cc(NS(=O)(=O)Cc4ccccc4)cc4ccccc34)c2n1 [Compound 50, 2-(morpholin-4-yl)ethyl 6-(aminomethyl)-1-{[3-(phenylmethanesulfon-amido)naphthalen-1-yl]-methyl}-1H-pyrrolo[2,3-b]pyridine-2-carboxylate] | ≤ 100
CC(C)N(C)CCOC(=O)c1cc2ccc(CN)nc2n1Cc1cc(NS(=O)(=O)Cc2ccccc2)cc2ccccc12 [Compound 52, 2-[methyl(propan-2-yl)-amino]ethyl 6-(amino-methyl)-1-{[3-(phenyl-methanesulfonamido)-naphthalen-1-yl]methyl}-1H-pyrrolo[2,3-b]pyr-idine-2-carboxylate] | ≤ 100
CNCCOC(=O)c1cc2ccc(CN)nc2n1Cc1cc(NS(=O)(=O)Cc2ccccc2)cc2ccccc12 [Compound 53, 2-(methylamino)ethyl 6-(aminomethyl)-1-{[3-(phenylmethanesulfon-amido)naphthalen-1-yl]-methyl}-1H-pyrrolo[2,3-b]pyridine-2-carboxylate] | ≤ 100
NCc1ccc2cc(C(=O)OCC3(CN)CC3)n(Cc3cc(NS(=O)(=O)Cc4ccccc4)cc4ccccc34)c2n1 [Compound 55, [1-(aminomethyl)cyclo-propyl]methyl 6-(amino-methyl)-1-{[3-(phenyl-methanesulfonamido)-naphthalen-1-yl]methyl}-1H-pyrrolo[2,3-b]pyr-idine-2-carboxylate] | ≤ 100
NCc1ccc2cc(C(=O)OCCOCCN3CCCCC3)n(Cc3cc(NS(=O)(=O)Cc4ccccc4)cc4ccccc34)c2n1 [Compound 56, 2-[2-(piperidin-1-yl)-ethoxy]ethyl 6-(amino-methyl)-1-{[3-(phenyl-methanesulfonamido)-naphthalen-1-yl]methyl}-1H-pyrrolo[2,3-b]pyr-idine-2-carboxylate] | ≤ 100
NCc1ccc2cc(C(N)=O)n(Cc3cc(NS(=O)(=O)Cc4ccccc4)cc4ccccc34)c2n1 [Compound 57, 6-(aminomethyl)-1-{[3-(phenylmethanesulfon-amido)naphthalen-1-yl]-methyl}-1H-pyrrolo[2,3-b]pyridine-2-carboxamide] | ≤ 100
CN(C)CCOCCOC(=O)c1cc2ccc(CN)nc2n1Cc1cc(NS(=O)(=O)Cc2ccccc2)cc2ccccc12 [Compound 58, 2-[2-(dimethylamino)-ethoxy]ethyl 6-(amino-methyl)-1-{[3-(phenyl-methanesulfonamido)-naphthalen-1-yl]methyl}-1H-pyrrolo[2,3-b]pyr-idine-2-carboxylate] | ≤ 100
